US20030013660A1, “Dioxolane analogs for improved inter-cellular delivery” (Shire BioChem Inc., priority 2000, published 2003)
Where “and” joins values, the source holds several entries; their conditions need not be identical. Equal values may be shown once.

Experiments:
SF-268 [1] = assay: 3H-TdR incorporation at 72 hr (24 hr drug exposure, wash, 48 hr); type: cell-based, Human; conditions: Homo sapiens, SF-268, read-out: IC50 in μM (3H-TdR incorporation at 72 hr) SF-268 24 h, SF-268 Human Central Nervous System Tumor; 24 h drug exposure, 72 hr assay
Method: (§1) Exposition of 24 hr to drug, wash, incubated for another 48 hr (total of 72 hr assay)
(§2) (3H-Thymidine Incorporation Assay)

H-460 [2] = assay: as above; type: cell-based, Human; conditions: Homo sapiens, NCI-H460, read-out: IC50 in μM (3H-TdR incorporation at 72 hr) H-460 24 h, H-460 Human Lung Carcinoma, 72 hr assay
Method: as §1, §2

MCF-7 [3] = assay: as above; type: cell-based, Human; conditions: Homo sapiens, MCF7, read-out: IC50 in μM (3H-TdR incorporation at 72 hr) MCF-7 24 h, MCF-7 Human Breast Carcinoma, 72 hr assay
Method: as §1, §2

CEM/dCK- [4] = assay: as above; type: cell-based; conditions: Homo sapiens, CCRF-CEM, read-out: IC50 in μM (3H-TdR incorporation at 72 hr) CEM/dCK- 24 h, CCRF-CEM deoxycytidine kinase-deficient; 24 h drug exposure, 72 hr assay
Method: as §1, §2

CCRF-CEM = assay: MTT or WST-1 assay at 72 hr (24 hr drug exposure, wash, 48 hr); type: cell-based; conditions: Homo sapiens, CCRF-CEM, read-out: IC50 CCRF-CEM 24 h, MMT or WST-1 at 72 hr, 24 h exposure, single experiment
Method: (§3) Exposition of 24hr to drug, washed, and incubated for another 48hr (total of 72hr assay)

CEM/dCK- [5] = assay: as above; type: cell-based; conditions: for Resistance Factor*: CEM/dCK- versus CCRF-CEM, single experiment; for IC50: read-out: IC50 CEM/dCK- 24 h, MMT or WST-1 at 72 hr, 24 h exposure, single experiment
Method: as §3

SF-268 [6] = assay: MTT assay at 72 hr (24 hr drug exposure, wash, 48 hr); type: cell-based; conditions: Homo sapiens
Method: as §3

H-460 [7] = assay: as above; type: cell-based; conditions: Homo sapiens, NCI-H460, read-out: IC50 H-460 24 h, MTT at 72 hr, 24 h exposure, single experiment
Method: as §3

MCF-7 [8] = assay: as above; type: cell-based; conditions: Homo sapiens, MCF7, read-out: IC50 MCF-7 24 h, MTT at 72 hr, 24 h exposure, single experiment
Method: as §3

H-460 [9] = assay: 3H-TdR (3H-thymidine) incorporation assay at 72 hr; type: cell-based, Human
SF-268 [10] = assay: 3H-TdR (3H-thymidine) incorporation assay at 72 hr; type: cell-based, Human
CEM/dCK- [11] = assay: 3H-TdR (3H-thymidine) incorporation assay at 72 hr; type: cell-based; conditions: Homo sapiens, CCRF-CEM, read-out: IC50 CEM/dCK- 24 h, 24 h drug exposure, wash, another 48 hr; deoxycytidine kinase-deficient CCRF-CEM
Method: Table of IC50 Values (μM) for Controls
as §1, §2

MCF-7 [12] = assay: 3H-TdR (3H-thymidine) incorporation assay at 72 hr; type: cell-based, Human; conditions: 3H-TdR incorporation at 72 hr
CEM cells = assay: CellTiter 96 cell proliferation assay (chemosensitivity), 48 h; type: cell-based
Method: The chemosensitivity of suspension cells lines (e.g., CEM or CEM-derivatives) is assessed using the CellTiter 96 ? proliferation assay. […] Adherent cell lines (e.g., DU145 or DU145^R) are seeded (^˜10^5 cells) in triplicate dishes, 24 h before drug exposure. Growth inhibition is determined by trypsinization and counting cells electronically.

[13] = SF-268, read-out: IC50 SF-268 24 h, MTT at 72 hr, 24 h exposure, single experiment
[14] = read-out: IC50 H-460 24 h, 24 h drug exposure, wash, another 48 hr, 3H-TdR incorporation at 72 hr

Row | Compound | IC50 (CCRF-CEM) [nM] | Resistance Factor* (CEM/dCK- [5]) | IC50 (CEM/dCK- [5]) [nM] | IC50 (SF-268 [6]; [13]) [nM] | IC50 (H-460 [7]) [nM] | IC50 (MCF-7 [8]) [nM] | IC50 (H-460 [9]; [14]) | other results
1 | CCCCC/C=C\C/C=C\CCCCCCCC(=O)Nc1ccn([C@@H]2CO[C@H](CO)O2)c(=O)n1 [Compound 217, OCTADECA-9,12-DIENOIC ACID [1-(2- HYDROXYMETHYL- [1,3]DIOXOLAN-4-YL)-2- OXO-1,2-DIHYDRO- PYRIMIDIN-4-YL]-AMIDE] | 360 | 75 | 27000 | 120 | 11 | 3.9 |  | IC50 (SF-268 [1]): 0.00013 µM; IC50 (H-460 [2]): ≤ 0.0001 µM; IC50 (MCF-7 [3]): ≤ 0.0001 µM; IC50 (CEM/dCK- [4]): 1.2 µM
2 | CC(C)C[C@H](NC(=O)[C@H](C)N)C(=O)Nc1ccn([C@@H]2CO[C@H](CO)O2)c(=O)n1.O=C(O)C(F)(F)F.O=C(O)C(F)(F)F [Compound 265, 2-(2-AMINO- PROPIONYLAMINO)-4- METHYL-PENTANOIC ACID [1-(2-HYDROXYMETHYL- [1,3]DIOXOLAN-4-YL)-2- OXO-1,2-DIHYDRO- PYRIMIDIN-4-YL]-AMIDE, BIS TRIFLUOROACETIC ACID SALT] | 30000 | >3 | > 100000 | > 100000 | > 100000 | 77000 |  | 
3 | CC(C)C[C@H](NC(=O)OCc1ccccc1)C(=O)N[C@@H](C)C(=O)N[C@@H](CC(C)C)C(=O)Nc1ccn([C@@H]2CO[C@H](CO)O2)c(=O)n1 [Compound 267, [1-(1-{1-[1-(2- HYDROXYMETHYL- [1,3]DIOXOLAN-4-YL)-2- OXO-1,2-DIHYDRO- PYRIMIDIN-4- YLCARBAMOYL]-3-METHYL- BUTYLCARBAMOYL}- ETHYLCARBAMOYL)-3- METHYL-BUTYL]-CARBAMIC ACID BENZYL ESTER] | 2900 | >3 | > 10000 | > 10000 | 93000 | 34000 |  | 
4 | CC(C)CCCCC(=O)Nc1ccn([C@@H]2CO[C@H](CO)O2)c(=O)n1 [Compound 277, 6-METHYL-HEPTANOIC ACID [1-(2-HYDROXYMETHYL- [1,3]DIOXOLAN-4-YL)-2- OXO-1,2-DIHYDRO- PYRIMIDIN-4-YL]-AMIDE] | 480 | >208 | > 100000 | 7300 | 2000 | 320 | 290 nM | IC50 (H-460 [9]; Homo sapiens, NCI-H460, read-out: IC50 H-460 24 h, 24 h drug exposure, wash, another 48 hr, 3H-TdR incorporation at 72 hr): 200 nM; IC50 (SF-268 [10]; Homo sapiens, SF-268, read-out: IC50 SF-268 24 h, 24 h drug exposure, wash, another 48 hr, 3H-TdR incorporation at 72 hr): 210 nM; IC50 (SF-268 [10]; read-out: IC50 SF-268 24 h, 24 h drug exposure, wash, another 48 hr, 3H-TdR incorporation at 72 hr): 190 nM; IC50 (CEM/dCK- [11]): > 100000 nM; IC50 (MCF-7 [12]; Homo sapiens, MCF7, read-out: IC50 MCF-7 24 h, 24 h drug exposure, wash, another 48 hr): 13 nM; IC50 (MCF-7 [12]; read-out: IC50 MCF-7 24 h, 24 h drug exposure, wash, another 48 hr): 16 nM
5 | Nc1ccn([C@@H]2O[C@H](CO)[C@@H](O)[C@@H]2O)c(=O)n1 [Cytarabine, cytarabine, reference compound] |  |  |  |  |  |  | 13 nM and 99 nM | IC50 (H-460 [9]; Homo sapiens, NCI-H460, 24 h, read-out: IC50 H-460 24 h, Average, Average ± spread of the repeat determinations, 24 h exposure): 52 nM; IC50 (SF-268 [10]; Homo sapiens, SF-268, 24 h, read-out: IC50 SF-268 24 h, Average, Average ± spread of the repeat determinations, 24 h exposure): 940 nM; IC50 (SF-268 [10]; read-out: IC50 SF-268 24 h, 24 h drug exposure, wash, another 48 hr, 3H-TdR incorporation at 72 hr, listed as Cytosine Arabinoside): 300 nM; EC50 (CEM cells; Homo sapiens, CCRF-CEM, 48 h, read-out: EC50 (50% of the dose response curve)): 10 nM; effect of the es transport inhibitor NBMPR on resistance of CEM cells (CEM cells; presence of NBMPR): increased resistance; IC50 (SF-268 [6]; SF-268, read-out: IC50 SF-268 24 h, Average, MTT at 72 hr, Average of the experiments): 25000 ± 23000 nM
